# Measured values published in US20260294885A1, “TREATMENT OF INFLAMMATORY CONDITIONS COMPRISING IMU-856” (IMMUNIC AG, priority 2023, published 2026).
# How the values were obtained:
# [1] = Clinical pharmacokinetics; format: in vivo, human
# Procedure: In Part A, healthy subjects were randomised to single ascending doses of IMU-856 (10 mg to 160 mg) or placebo. In Part B healthy subjects were randomised to multiple once-daily doses of IMU-856 (40, 80, and 160 mg) or placebo for 14 days. Part C randomised patients with celiac disease who were on a gluten-free diet to multiple once-daily doses of IMU-856 (80 mg and 160 mg) or placebo for 28 days; a once-daily gluten challenge (6 g) was introduced on Day 14 and ended on Day 28. 71 healthy subjects were enrolled in Part A and B (N=19 placebo and N=52 IMU-856) and 43 patients with CelD in Part C (N=14 placebo; N=14 for 80 mg, and N=15 for 160 mg). In Parts A and B, treatment-emergent adverse events (TEAEs) occurred in 24 (73%) and 15 (79%) of subjects receiving any dose of IMU-856 compared to 6 (50%) and 5 (71%) with placebo, respectively. […] In Part C, the most common adverse events with any dose of IMU-856 by preferred term were headache (13 [45%]), nausea (9 [31%]), diarrhoea (8 [28%]), and abdominal distension (7 [24%]). […] In Part C, the mean change in villous height from baseline to Day 29 with 80 mg and 160 mg was −20.9±34.8 μm, and −22.5±51.1 μm, respectively, and −60.3±52.2 μm with placebo. […] Mean change in plasma citrulline increased with 80 mg and 160 mg from baseline to Day 14 (2.4±6.2 and 6.1±5.9 μmol/L, respectively) and from baseline to Day 29 (2.8±7.6 and 2.2±5.3 μmol/L, respectively), but not with placebo (−2.7±5.6 and −4.0±6.5 μmol/L). […] Mean increase in zinc levels from baseline to Day 29 with 80 mg and 160 mg were 0.3±1.4 and 0.9±2.1 μmol/L compared to a mean decrease in placebo (−0.9±2.1 μmol/L). Gluten-induced symptoms were also attenuated by IMU-856.
# [2] = system: dextran sodium sulphate (DSS)-induced colitis; test: DSS-induced colitis model in mice (different settings); format: in vivo; conditions: different settings of DSS colitis model
compound,measurement,setting,value
"Cn1c(COc2cc(C(F)(F)F)ccn2)nnc1[C@H]1CC[C@H](c2cnn([C@H]3CC[C@H](N4CC5(CCO5)C4)CC3)c2)CC1 [IMU-856, 6-(trans-4-(4-(trans-4-(4-methyl-5-(((4-(trifluoromethyl)pyridin-2-yl)oxy)methyl)-4H-1,2,4-triazol-3-yl)cyclohexyl)-1H-pyrazol-1-yl)cyclohexyl)-1-oxa-6-azaspiro[3.3]heptane]",accumulation factor,[1]; daily dosing,low accumulation factor
same,"steady-state plasma concentrations, time to achievement",[1]; daily dosing,within the first week
same,half-life,"[1]; human, plasma, steady-state",1040 to 1290 min
same,Tmax,"[1]; human, plasma, steady-state, post-dose",2 to 3 h
same,steady-state trough levels,[1]; over the 14-day treatment period,stable steady-state trough levels
same,AUC dose dependence,[1]; steady-state,dose proportional increases
same,Cmax dose dependence,[1]; steady-state,dose proportional increases
same,colon length,[2],increasing colon length
same,colon mucosal histology,[2],improving colon mucosal histology
same,diarrhea symptoms,[2],improving diarrhea symptoms
same,disease severity,[2],reducing disease severity
